Legend:
[1] = In vivo inhibition of ERK phosphorylation in human MIA PaCa-2 cells harbouring KRAS G12C mutant xenografted in athymic nude Foxn1 nu mouse assessed as phosphorylated ERK level at 10 mg/kg, po qd measured after 4 hrs relative to total ERK; format: functional
[2] = Inhibition of human recombinant SOS2 catalytic domain/human recombinant GST-KRAS G12C mutant expressed in Escherichia coli assessed as inhibition of interaction
[3] = Inhibition of N-terminal his-tagged human recombinant SOS2/C-terminal Avi-biotinylated-tagged human recombinant KRAS expressed in Escherichia coli assessed as inhibition of GDP exchange rate by TR-FRET assay
[4] = Free plasma concentration in CD-1 mouse at 100 mg/kg, po measured on 1 hr; format: ADME, organism-based; settings: in vivo
[5] = In vivo inhibition of ERK phosphorylation in human MIA PaCa-2 cells harbouring KRAS G12C mutant xenografted in athymic nude Foxn1 nu mouse assessed as phosphorylated ERK level at 10 mg/kg, po qd in presence of 25 mg/kg MRTX849 measured after 4 hrs relative to total ERK; format: functional
[6] = In vivo inhibition of ERK phosphorylation in human MIA PaCa-2 cells harbouring KRAS G12C mutant xenografted in athymic nude Foxn1 nu mouse assessed as phosphorylated ERK level at 10 mg/kg, po qd in presence of 50 mg/kg MRTX849 measured after 4 hrs relative to total ERK; format: functional

**Q.** For `C=C(F)C(=O)N1CCN(c2nc(OC[C@@H]3CCCN3C)nc3c2CCN(c2cccc4cccc(Cl)c24)C3)C[C@@H]1CC#N` [ADAGRASIB], which inhibition in vivo at 10 mg/kg [1] is on record?
**A.** 21%

**Q.** Which IC50 [2] does the source give for `CNCc1ccccc1-c1csc([C@@H](C)Nc2nc(C)nc3cc(OC)c(OC)cc23)c1` [BAY-293] here?
**A.** 0.021 µM

**Q.** Which results are given for `Cc1c(C#N)cccc1[C@@H](C)Nc1nnc(C)c2cnc(N3CCOCC3)cc12` [MRTX-0902]?
**A.** IC50 [3]: > 10 µM; Cp(f) [4]: 0.134 µM; inhibition in vivo at 10 mg/kg [5]: 66%; inhibition in vivo at 10 mg/kg [6]: 81%

Source: ChEMBL document CHEMBL5143739, “Design and Discovery of MRTX0902, a Potent, Selective, Brain-Penetrant, and Orally Bioavailable Inhibitor of the SOS1:KRAS Protein-Protein Interaction” (J Med Chem, 2022)
